Test results reported in patent US20090274714A1, “TUMOUR-ASSOCIATED PEPTIDES BINDING TO HUMAN LEUKOCYTE ANTIGEN (HLA) CLASS I OR II MOLECULES AND RELATED ANTI-CANCER VACCINE” (Immatics Boitechnologies GmhH, priority 2005, published 2009).
Read-outs that look alike come from different tables or passages of the source. Ends that are not written are not given here.

Assays:
[1] = Physico-chemical characteristics: solubility; conditions: solvent giving clear and colourless solution at 1 mg/ml
[2] = system: T-cells; assay: Summary of in vitro immunogenicity (killer assay, cytokine release/staining, tetramer detection); type: cell-based, human; conditions: reference: unpublished
Description: As in the latter case, several tumour cell lines endogenously expressing the antigen are also recognized.
IMA contains 10 HLA class I-binding peptides. To test the peptides regarding their in vitro immunogenicity, CD8-positive cytotoxic T-cells were generated from autologous peripheral blood mononuclear cells (PBMC) from healthy donors using single peptides contained in IMA and the activity of these cytotoxic T-cells was tested with chromium release assays and detection of T-cells with HLA tetramers in flow cytometry. Detailed data is shown for one exemplary peptide (IMA-MET-001) for both methods, the data for the other peptides is summarized in Table 8 above.
In the first step, cytotoxic T-cells are generated (primed) in vitro by repeated stimulation of peripheral blood mononuclear cells (PBMC) from healthy HLA-A*02 positive donors with the specific peptide to be tested. The priming can be done either using autologous dendritic cells generated from blood monocytes of the donor or using HLA tetramer-loaded beads.
A. Cytotoxic killing of target: In the second step, cytoxicity of such primed cytotoxic T-cells (CTLs) are tested by labelling target cells with radioactive chromium and incubating target cells with generated CTLs. The amount of radioactive chromium released into the supernatant can be correlated directly to proportion of killed target cells.
B. Detection of T-cells with HLA tetramers: Alternatively, in the second step primed CTLs with specificity for a given peptide are detected using HLA tetramers. Tetramers consist of four peptide-loaded HLA-A*02 molecules coupled to each other. These constructs allow specific labelling of the cognate T-cell receptor that recognizes the HLA-peptide-complex in the tetramer and by labelling of the tetramer with a fluorochrome followed by analysis in flow cytometry (FACS).

[3] = system: renal cell carcinoma; conditions: monotherapy, advanced RCC; cited from earlier work
[4] = system: T-cells; conditions: reference: published literature; cited from earlier work
[5] = system: CD4-positive T-cells; assay: Intracellular IFNγ staining of in vitro primed CD4-positive T-cells; type: cell-based, human
Description: First, CD4-positive T-cells were generated (primed) in vitro by repeated stimulation of peripheral blood mononuclear cells (PBMC) from healthy donors with the specific peptide to be tested in the presence of IL-12. The priming was performed using autologous dendritic cells generated from blood monocytes of the donors. In the second step, the activity of primed CD4-positive T-cells specific for the given peptide were tested by measurement of IFNγ production by intracellular IFNγ staining using a fluorescently labelled antibody. The analysis was done by flow cytometry (FACS).
Human DCs were prepared out of PBMCs from freshly drawn blood from healthy donors. PBMCs were isolated using a Ficoll density gradient (Lymphocyte Separation Medium, PAA Laboratories GmbH, Pasching, Austria). The obtained cells were washed, resuspended in X-Vivo 15 medium supplemented with 50 U/ml penicillin, 50 μg/ml streptomycin and 2 mM L-Glutamine (BioWhittaker, Verviers, Belgium) and plated at a density of 7×10^6 cells/ml. […]
Cryopreserved PBMCs were thawed, washed two times in X-Vivo 15 medium, resuspended at 10^7 cells/ml in T-cell medium and cultured overnight to reduce unspecific IFNγ production (Provenzano 2002). […] Cells were analyzed using a Cytofix/Cytoperm Plus kit (Becton Dickinson) and CD4-FITC− (Immunotools), IFNγ-PE- and CD8-PerCP clone SKI-antibodies (Becton Dickinson). After staining, cells were analyzed on a three-color FACSCalibur (Becton Dickinson).
To generate antigen-specific CD4-positive T-cells and to test the peptide on promiscuous binding, PBMCs of 4 healthy donors with different HLA-DR alleles (FIG. 7) were stimulated using peptide-pulsed autologous DCs. As a read-out system for the generation of antigen-specific CD4-positive T-cells IFNγ production was assessed by flow cytometry. T-cells were analyzed after the third and the fourth stimulation by intracellular IFNγ staining plus CD4-FITC and CD8-PerCP staining to determine the percentage of IFNγ-producing cells in specific T-cell subpopulations. […]

[6] = University of Tübingen trial, cited from earlier work
[7] = system: T-cells; conditions: peptide not vaccinated; not present prior to vaccination; 2 RCC patients; cited from earlier work
[8] = system: HLA-A*02 positive cell lines HCT 116, A498, MZ 1257, MCF-7, MeI 1479 and U266 that express c-Met; conditions: HLA-A2+/c-Met+ cell lines; SK-OV-3, Croft, K 562 not recognized; cited from earlier work
[9] = system: U 266 and A 498; conditions: inhibitor to target ratio 20:1; cited from earlier work
[10] = system: peptide loaded T2 cells and autologous DC; conditions: cited from earlier work
[11] = target: T1, biotinylated recombinant HLA-A*0201 molecules lacking the transmembrane domain (human, biotinylated at the carboxy terminus of the heavy chain); assay: tetrameric recombinant HLA-A*0201 multimer loaded with the peptide, flow cytometry reagent
T1 construct: tetramerised on streptavidin-PE or streptavidin-APC at a 4:1 molar ratio, or coupled to streptavidin beads; also called HLA-A*0201 tetramer; HLA tetramers

[12] = target: T1, biotinylated recombinant HLA-A*0201 …; assay: recombinant HLA-A*0201 refolded with the peptide, used on beads and as tetramer

ALADGVQKV-OH [IMA-APO-001]
Solubility (Clear and colourless solution 1 mg/ml) [1]: water

ALFDGDPHL-OH [IMA-K67-001]
In vitro immunogenicity (assay by which shown) [2]: Tetramer detection | Solubility (Clear and colourless solution 1 mg/ml) [1]: 20% acetic acid

IFNα
response rate, initially reported [3]: 25-30% | true response rate suggested by additional trials [3]: about 10%

LAALPHSCL-OH [IMA-RGS-001]
In vitro immunogenicity (assay by which shown) [2]: Tetramer detection | Solubility (Clear and colourless solution 1 mg/ml) [1]: water

LLGATCMFV-OH [IMA-CCN-001]
In vitro immunogenicity (assay by which shown) [4]: Killer assay (allogeneic T cells) | Solubility (Clear and colourless solution 1 mg/ml) [1]: 50% acetic acid

SQDDIKGIQKLYGKRS-OH [IMA-MMP-001]
In vitro immunogenicity (assay by which shown) [2]: Cytokine staining | healthy donors in whom CD4-positive T-cell responses were elicited ([5]; 4 healthy donors with different HLA-DR alleles, positive if more than two fold over negative control): three out of four | CD4-positive T-cell reactivity (intracellular IFN gamma) ([5]; Donor 1, 2 and 3, after the third and the fourth stimulation): showed CD4-positive T-cells reactive | CD4-positive T-cell reactivity (intracellular IFN gamma) ([5]; Donor 4): always negative

STAPPVHNV-OH [IMA-MUC-001]
In vitro immunogenicity (assay by which shown) [4]: Killer assay, cytokine release | autoimmune effects ([6]; administered with autologous dendritic cells): no autoimmune effects | tolerability ([6]; loaded on dendritic cells): very well tolerated | Solubility (Clear and colourless solution 1 mg/ml) [1]: 10% acetic acid

SVASTITGV-OH [IMA-ADF-001]
In vitro immunogenicity (assay by which shown) [4]: Killer assay | specific T-cells after vaccination with non-related MUC peptides (epitope spreading) [7]: detected | Solubility (Clear and colourless solution 1 mg/ml) [1]: 10% acetic acid

SVFAGVVGV-OH [IMA-GUC-001]
Solubility (Clear and colourless solution 1 mg/ml) [1]: 90% acetic acid

VMAGDIYSV-OH [IMA-ADF-002]
In vitro immunogenicity (assay by which shown) [2]: Tetramer detection | Solubility (Clear and colourless solution 1 mg/ml) [1]: 10% acetic acid

YVDPVITSI-OH [IMA-MET-001]
In vitro immunogenicity (assay by which shown) [4]: Killer assay, cytokine staining, tetramer | lysis of tumour cells endogenously expressing c-Met by induced CTL [8]: able to efficiently lyse malignant cells expressing both HLA-A2 and c-Met | effect of cold T2-cells pulsed with cognate peptide on lysis of tumour cells [9]: reduced the lysis of tumour cells | cytotoxicity of induced CTL against peptide-loaded targets [10]: antigen-specific killing

ALFDGDPHL (HLA class I TUMAP) [IMA-K67-001 (peptide from KIAA0367)]
binding result [11]: binds

B1: IMA-CCN-001 (peptide from Cyclin D1) (peptide)
peptide: LLGATCMFV
notes: HLA class I TUMAP; not identified by elution from tumour tissue; also called rCCN-001; CNN-001
binding result [11]: binds

B2: IMA-MET-001 (peptide from c-met proto-oncogene) (peptide)
peptide: YVDPVITSI
notes: HLA class I TUMAP; also called c-Met peptide
binding result [12]: binds
